From PubChem BioAssay AID248 (DTP/NCI, 2004)
Toxic doses and inconclusive results are not listed. No stated cut-off is given here; in the data, active means T/C of 150% or more; inactive means T/C below 125%.

System: L1210 leukemia ip in BDF1 mice, survival T/C
Assay: NCI In Vivo Anticancer Drug Screen. Data for tumor model L1210 Leukemia (intraperitoneal) in B6D2F1 (BDF1) mice
Settings: endpoint: mean survival time, higher = longer survival
Summary of the method: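 Each compound was tested against a transplantable tumor grown in mice. The endpoint was survival, with treated animals benchmarked against vehicle controls as a simple ratio.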

Measured: T/C

c1cc(C2=NCCN2)ccc1C1=NCCN1
inactive: dose: 15.0 mg/kg/injection, schedule: Q01DX Z (ip), vehicle: saline 104 % of control | dose: 30.0 mg/kg/injection, schedule: Q01DX Z (ip), vehicle: saline 102 % of control | dose: 60.0 mg/kg/injection, schedule: Q01DX Z (ip), vehicle: saline 106 % of control | dose: 120.0 mg/kg/injection, schedule: Q01DX Z (ip), vehicle: saline 101 % of control

CSc1nc(N)nc2nc(C)c(C)cc12
inactive: dose: 100.0 mg/kg/injection, schedule: Q01DX Z (ip), vehicle: methylcellulose (MC) 90 % of control | dose: 200.0 mg/kg/injection, schedule: Q01DX Z (ip), vehicle: methylcellulose (MC) 89 % of control

NC(N)=N/N=C/c1cccc(Cl)c1Cl
inactive: dose: 7.5 mg/kg/injection, schedule: Q01DX Z (ip), vehicle: other 97 % of control | dose: 15.0 mg/kg/injection, schedule: Q01DX Z (ip), vehicle: other 100 % of control | dose: 30.0 mg/kg/injection, schedule: Q01DX Z (ip), vehicle: other 92 % of control | dose: 60.0 mg/kg/injection, schedule: Q01DX Z (ip), vehicle: other 86 % of control

CCOC(=O)CCc1c[nH]c(C)c1C(=O)C(=O)OCC
inactive: dose: 100.0 mg/kg/injection, schedule: Q01DX001 (ip), vehicle: Klucel (hydroxypropylcellulose) (HPC) 95 % of control | dose: 100.0 mg/kg/injection, schedule: Q04DX003 (ip), vehicle: Klucel (hydroxypropylcellulose) (HPC) 93 % of control | dose: 200.0 mg/kg/injection, schedule: Q01DX001 (ip), vehicle: Klucel (hydroxypropylcellulose) (HPC) 98 % of control | dose: 200.0 mg/kg/injection, schedule: Q04DX003 (ip), vehicle: Klucel (hydroxypropylcellulose) (HPC) 102 % of control | dose: 400.0 mg/kg/injection, schedule: Q01DX001 (ip), vehicle: Klucel (hydroxypropylcellulose) (HPC) 95 % of control | dose: 400.0 mg/kg/injection, schedule: Q04DX003 (ip), vehicle: Klucel (hydroxypropylcellulose) (HPC) 96 % of control

C=CCSCCC
inactive: dose: 100.0 mg/kg/injection, schedule: Q01DX009 (ip), vehicle: saline 90 % of control | dose: 100.0 mg/kg/injection, schedule: Q04DX003 (ip), vehicle: saline 96 % of control | dose: 200.0 mg/kg/injection, schedule: Q01DX009 (ip), vehicle: saline 90 % of control | dose: 200.0 mg/kg/injection, schedule: Q04DX003 (ip), vehicle: saline 104 % of control | dose: 400.0 mg/kg/injection, schedule: Q01DX009 (ip), vehicle: saline 90 % of control | dose: 400.0 mg/kg/injection, schedule: Q04DX003 (ip), vehicle: saline 91 % of control
